Results from patent US6599917B1, “Quinuclidine compounds and drugs containing the same as the active ingredient” (priority 1999, dated 2003).

Tests used:
cholesterol biosynthesis [1] = experiment: Measurement of cholesterol biosynthesis inhibitive activity in a rat liver cell; assay type: cell-based; settings: isolated rat liver cells, [1-14C]acetic acid added 10 minutes after the specimen
Experimental: (§1) Measurement of Cholesterol and Triglyceride Biosynthesis Inhibitive Activities in a Rat Liver Cell
(§2) A liver cell was isolated from a male SD rat according to a usual method (collagenase perfusion method) and subjected to an experiment.
(§3) The isolated liver cells were planted in an amount of 500 μ1 every well on a Type collagen coated 24 well plate (cell density: 4×10^5 cell/ml). As the cell culture solution, a Williams'E medium (adjusted to pH 7.4) containing 10% FCS, 1 μM insulin, 1 μM dexamethasone, 100 units/ml penicillin and 10 μg/ml streptomycin was used. After the liver cells were incubated in a CO2 incubator for 2 hours, unstuck cells were removed and the liver cells were further incubated overnight.
(§4) After the culture medium was exchanged, the specimen diluted in a 10% DMSO-90% cell culture solution was added to each well in an amount of 5 μ1. DMSO (final concentration: 0.1%) was added to a control group. A [1-^14C]Acetic acid, sodium salt (5 μCi/well) was added to the media 10 minutes and 4 hours after the specimen was added for the measurement of cholesterol synthesis inhibitive action and for the measurement of triglyceride synthesis inhibitive action respectively, followed by culturing for further 2 hours.
(§5) After the cultivation was finished, the supernatant was removed and the cells were washed using PBS(−)(Phosphate buffered saline (Ca^2+, Mg^2+free) twice. Hexane/isopropyl alcohol (3:2, v/v) was added to the cells and the cells were then allowed to stand for 10 minutes to extract intracellular lipid. The extract was transferred to a glass tube and exsiccated under a nitrogen gas stream. Further, the exsiccated extract was washed with 25 mL of petroleum ether and then dissolved in petroleum ether containing the following components: 0.01% squalene, 0.3% free cholesterol, 0.3% cholesterol acetate, 0.1% triolein, 0.01% farnesol and 0.3% lanosterol.
(§6) The resulting solution was spotted on a TLC plate to perform an isolating operation. The spotted solution was developed for 10 minutes by using toluene/isopropyl ether (1:1, v/v) as the solvents and for further 15 minutes by using heptane in place of the above solvent after it was dried using air.
(§7) After the development was finished, the TLC plate was subjected to iodine color development. After each position of free cholesterol and triolein which were used as standards was confirmed, the image of the TLC plate was transferred to a BAS 2000 (Fuji Film) imaging plate by exposure performed for 16 hours. This transferred image was analyzed using a BAS 2000 IP Reader and an Imaging analyzer II to measure radiative activities contained in the free cholesterol and triglyceride fractions.
(§8) The cholesterol biosynthesis inhibitive activity was expressed by a concentration (IC50) at which 50% of the radiative activity of the control group was inhibited and the triceride biosynthesis inhibitive activity was expressed by an inhibition rate (%) to the control group.

[2] = system: triglyceride biosynthesis; experiment: Measurement of triglyceride biosynthesis inhibitive activity in a rat liver cell; assay type: cell-based; settings: for inhibition at 1 µM: Rattus norvegicus, 6 h, read-out: Triglyceride biosynthesis inhibitive activity inhibition in 1 μM of the specimen; for Triglyceride biosynthesis inhibitive activity inhibition in 1 μM of the specimen: isolated rat liver cells, [1-14C]acetic acid added 4 hours after the specimen, inhibition rate to control group
Experimental: as §1, §2, §3, §4, §5, §6, §7, §8

cholesterol biosynthesis [3] = experiment: Measurement of cholesterol biosynthesis inhibitive activity in a rat; assay type: in vivo; settings: 2 h, male SD rat, oral, inhibition rate to control group
Experimental: Measurement of Cholesterol Biosynthesis Inhibitive Activity in a Rat
(I) An SPF grade male SD rat (4 weeks age, SLC) was bred for more than one week in a day-night-reversal room and subjected to an experiment made in the daytime. The compound dissolved in a 2% Tween 80 solution was administered (5 ml/kg) to the rat using an oral sonde. After one hour, a [1-^14C]Acetic acid, sodium salt (1.67-2.22 GBq/mmol, 37 MBq/ml, NEN) prepared by diluting to 1.85 MBq/ml by using physiological saline was intraabdominally administered (300 μ1/animal). After one hour, the rat was anesthetized by diethyl ether to carry out exsanguination from the aorta abdominalis. The collected blood was centrifuged at 3000 rpm for 10 minutes to prepare blood plasma.
(II) 1 ml of 4N KOH and 1 ml of ethanol were added to 2 ml of the blood plasma, which was then incubated at 65° C. for one hour and there after, 3 ml of petroleum ether was added. The plasma was shaken for 30 minutes. After the water phase was separated from the organic phase by centrifugation, it was frozen at −80° C. and the radiative activity of the organic phase was measured using a liquid scintillation counter. Or the organic phase was evaporated to dryness using nitrogen gas and the residue was dissolved as a marker in 25 µl of chloroform containing squalene, farnesol and cholesterol. This sample was applied to a TCL plate (Merck) and developed using toluene and isopropyl ether (1:1) for 15 to 20 minutes. A band of cholesterol was cut from the plate to measure the radiative activity by using a liquid scintillation counter. The cholesterol biosynthesis inhibition activity was expressed by an inhibition rate (%) to a control group.

[4] = molecular target: T1, squalene synthesizing enzyme (Rattus norvegicus, UniProt Q02769); experiment: Measurement of squalene synthesizing enzyme inhibitive activity by using a rat liver microsome; assay type: biochemical; settings: [3H]-farnesylpyrophosphoric acid
T1 construct: The liver was excised from a male Spraugue-Dawly rat; from tissue; host or cells: liver microsome fraction of male Sprague-Dawley rat (8 to 9 weeks)
T1 sequence (Q02769 1-416): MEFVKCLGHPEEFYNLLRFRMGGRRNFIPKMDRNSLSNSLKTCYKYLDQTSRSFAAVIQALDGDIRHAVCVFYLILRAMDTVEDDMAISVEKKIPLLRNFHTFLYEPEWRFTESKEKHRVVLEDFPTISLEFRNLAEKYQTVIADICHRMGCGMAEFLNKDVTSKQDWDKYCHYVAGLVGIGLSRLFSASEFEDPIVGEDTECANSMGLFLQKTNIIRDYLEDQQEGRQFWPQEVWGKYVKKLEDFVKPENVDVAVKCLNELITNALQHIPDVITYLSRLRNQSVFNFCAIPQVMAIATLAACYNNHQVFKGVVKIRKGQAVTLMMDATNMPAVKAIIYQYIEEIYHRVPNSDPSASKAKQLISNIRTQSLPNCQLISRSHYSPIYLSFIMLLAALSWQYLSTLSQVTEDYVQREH
Experimental: Measurement of Squalene Synthesizing Enzyme Inhibitive Activity by Using a Rat Liver Microsome
(I) The reaction was run on a scale of 500 μ1. 200 µl of a solution containing 125 mM tris-hydrochloric acid (pH: 7.3), 2.5 mM magnesium chloride, 5 mM potassium fluoride and 10 mM reduction type nicotinamidoadenine dinucleotide phosphoric acid, 100 µl of the specimen solution with a 5-fold concentration, 100 µl of distilled water and 50 µl of 0.4 to 1 mg/ml rat liver microsome prepared by the following method were mixed.
(II) The above mixture was pre-incubated at 37° C. for 10 minutes and thereafter, 50 µl of 100 μM [^3H]-farnesylpyrophosphoric acid (30 mCi/mmol, NEN) was added to the mixture to start a reaction. The reaction was continued at 37° C. for 10 minutes. 1 ml of ethanol was added to the resulting mixture to terminate the reaction and then 1 ml of distilled water and 3 ml of petroleum ether were added to the reaction solution, which was then shaken for 30 minutes. The water phase was separated from the oil phase, the water phase was frozen at −70° C. in dry ice/methanol and the radiative activity of the organic phase was measured using a liquid scintillator. Or the organic phase was evaporated to dryness using nitrogen gas and the residue was dissolved as a marker in 25 µl of chloroform containing squalene, farnesol and cholesterol. This sample was spotted on a TCL plate (Merck) and developed using heptane for 15 to 20 minutes. A band of squalene was cut from the plate to measure the radiative activity by using a liquid scintillation counter. The data was expressed by a concentration (IC50) at which 50% of the radiative activity of a control group was inhibited.
Method of the Preparation of a Rat Liver Microsome
The following operations were all carried out on ice and the centrifugation was performed at 4° C. The liver was excised from a male Spraugue-Dawly rat (hereinafter referred to as SD rat) (8 to 9 weeks age) and perfused with 1.15% potassium chloride to remove the blood. Then, the liver was minced using a forceps and the minced liver was homogenized using a Teflon homogenizer. The resulting sample was centrifuged at 16000×g twice for 15 minutes. The supernatant was further centrifuged at 105000×g for 60 minutes. The obtained deposit was determined as a microsome fraction, which was then suspended in a 25 mM tris-hydrochloric acid solution. The concentration of protein was measured quantitatively by a Bradford method and the concentration of protein was adjusted to 20 mg/ml by using the same solution. The resulting solution was stored at […].

Row | Compound | IC50 (cholesterol biosynthesis [1]; 10 min) [µM] | inhibition at 1 µM [2] [%] | IC50 [4] [µM] | further results
1 | COC(C)COc1ccc(C#C[C@]2(O)CN3CCC2CC3)c(Cc2ccccc2)n1 (stereo partly drawn) [Example 149, (3S)-3-[2-Benzyl-6-(2-methoxypropyl)oxy-3-pyridyl]ethynyl-3-quinuclidinol] | 0.59 |  |  | 
2 | O[C@]1(C#Cc2ccc(OCCCF)nc2Cc2ccccc2)CN2CCC1CC2 [Example 150, (3R)-3-[2-Benzyl-6-(3-fluoropropyl)oxy-3-pyridyl]ethynyl-3-quinuclidinol] |  | 80 |  | inhibition in vivo at 1 mg/kg (cholesterol biosynthesis [3]; dose 1 mg/kg): 73%
3 | CO[C@H]1CN(c2ccc(C#C[C@@]3(O)CN4CCC3CC4)c(Cc3ccccc3)n2)C[C@H]1O [Example 106, (3R)-3-[2-Benzyl-6-[(3R,4S)-3-hydroxy-4-methoxypyrrolidine-1-yl)-3-pyridyl]ethynyl-3-quinuclidinol] |  | 81 | 0.0069 | 
4 | COC(C)COc1ccc(C#C[C@@]2(O)CN3CCC2CC3)c(Cc2ccccc2)n1 (stereo partly drawn) [Example 148, (3R)-3-[2-Benzyl-6-(2-methoxypropyl)oxy-3-pyridyl]ethynyl-3-quinuclidinol] | 0.16 |  |  | inhibition in vivo at 3 mg/kg (cholesterol biosynthesis [3]; dose 3 mg/kg): 92%
5 | CO[C@@H]1CN(c2nc(Cc3ccccc3)c(C#C[C@@]3(O)CN4CCC3CC4)cc2Cl)C[C@H]1O [Example 116, (3R)-(3R)-3-[2-Benzyl-5-chloro-6[(3R,4R)-3-hydroxy-4-methoxypyrrolidine-1-yl]-3-pyridyl]ethynyl-3-quinuclidinol] | 0.072 |  | 0.00077 | 
6 | (3R)-3-[4-Benzyl-2-[(3R,4R)-3-hydroxy-4-methoxypyrrolidine-1-yl]-3-pyrimidyl]ethynyl-3-quinuclidinol [Example 201] |  |  | 0.0016 | Triglyceride biosynthesis inhibitive activity inhibition in 1 μM of the specimen [2]: 85%
7 | O[C@]1(C#Cc2cnc(C3=COCCO3)cc2Cc2ccccc2)CN2CCC1CC2 [Example 186, (3R)-3-[4-Benzyl-2-(1,4-dioxene-2-yl)-5-pyridyl]ethynyl-3-quinuclidinol] |  |  |  | IC50 (cholesterol biosynthesis [1]): 0.069 µM
8 | CO[C@H]1C(=O)N(c2ccc(C#C[C@@]3(O)CN4CCC3CC4)c(Cc3ccccc3)n2)C[C@H]1O [Example 124, (3R)-3-[2-Benzyl-6-[(3R,4R)-4-hydroxy-3-methoxy-2-pyrrolidinone-1-yl]-3-pyridyl]ethynyl-3-quinuclidinol] | 0.081 | 79 | 0.0018 | 
9 | (3R)-3-[Benzyl-6-(3,3-ethylenedioxypyrrolidine-1-yl]-3-pyridyl]ethynyl-3-quinuclidinol [Example 118] |  |  | 0.0025 | Triglyceride biosynthesis inhibitive activity inhibition in 1 μM of the specimen [2]: 85%; IC50 (cholesterol biosynthesis [1]): 0.075 µM
10 | O[C@]1(C#Cc2cnc(-c3ccccn3)cc2Cc2ccccc2)CN2CCC1CC2 [Example 179, (3R)-3-[4-Benzyl-2-(2-pyridyl)-5-pyridyl]ethynyl-3-quinuclidinol] | 0.13 | 84 |  | 
11 | CO[C@H]1CN(c2ccc(C#C[C@@]3(O)CN4CCC3CC4)c(Cc3ccccc3)n2)C[C@H]1OC (relative stereo) [Example 120, (3R)-3-[2-Benzyl-6-(cis-3,4-dimethoxyprrolidine-1-yl)-3-pyridyl]ethynyl-3-quinuclidinol] |  |  |  | Triglyceride biosynthesis inhibitive activity inhibition in 1 μM of the specimen [2]: 80%; IC50 (cholesterol biosynthesis [1]): 0.075 µM
12 | O=C1N(c2ccc(C#C[C@@]3(O)CN4CCC3CC4)c(Cc3ccccc3)n2)CCC12OCCO2 [Example 138, (3R)-3-[2-Benzyl-6-(3,3-ethylenedioxy-2-pyrrolidinone-1-yl)-3-pyridyl]ethynyl-3-quinuclidinol] | 0.014 |  | 0.00035 | 
13 | CO[C@@H]1CN(c2ccc(C#C[C@@]3(O)CN4CCC3CC4)c(Cc3ccccc3)n2)C[C@@H]1F [Example 110] |  | 84 | 0.0021 | 
14 | OCCCOc1ccc(C#C[C@@]2(O)CN3CCC2CC3)c(Cc2ccccc2)n1 [Example 166, (3R)-3-[2-Benzyl-6-(3-hydroxypropyl)oxy-3-pyridyl]ethynyl-3-quinclidinol] |  | 82 | 0.015 | 
15 | O[C@]1(C#Cc2cnc(-c3cccnc3)cc2Cc2ccccc2)CN2CCC1CC2 [Example 176, (3R)-3-[4-Benzyl-2-(3-pyridyl)-5-pyridyl]ethynyl-3-quinuclidinol] |  | 74 |  | 
16 | CO[C@@H]1CN(c2nc(Cc3ccccc3)c(C#C[C@@]3(O)CN4CCC3CC4)cc2Br)C[C@H]1O [Example 117, (3R)-3-[2-Benzyl-5-bromo-6-[(3R,4R)-3-hydroxy-4-methoxypyrrolidine-1-yl]-3-pyridyl]ethynyl-3-quinuclidinol] | 0.079 |  | 0.0045 | 
